Test results taken from patent US10653672B2, “Myogenesis promotor, muscle atrophy inhibitor, medical composition and TAZ activator” (National University Corporation Tokyo Medical and Dental …, priority 2014, dated 2020).
Where “and” joins values, the source holds several entries; their conditions need not be identical. Equal entries are not always repeated.

How the values were obtained:
SMAD reporter = test: Luciferase reporter assay, SMAD reporter; format: cell-based; details: Mus musculus, C2C12, 24 h, C2C12 cells expressing reporter and TAZ WT, differentiation medium 24 hours
Method: The effect and its degree on the activity of a reporter, derived from a transcription factor that interacts with TAZ in C2C12 cells, were evaluated. Specifically, C2C12 cells expressing luciferase reporters corresponding to MyoD, TEAD, SMAD and Pax3 and C2C12 cells expressing these luciferase reporters and TAZ were cultured in a culture medium added with IBS008738 or DMSO at a concentration of 10 μM, respectively. […] The line and the error bar indicate the average value and the standard error, *p<0.05, **p<0.01, ns refers to not significant.
Transfection of the luciferase reporters was performed to the C2C12 cells after being plated at 12-well plates (1×10^5 cells/well) and cultured overnight. As the luciferase reporters, pGL3 Myo-184- (MyoD-), 8×GT-IIC-δ51LucII- (TEAD-), 9×CAGA-MLP-(SMAD-), and p(PRS-1/-4)3- (Pax3-) were transfected to the cells alone or with TAZ. These reporter vectors were from Keiji Miyazawa (Yamanashi University), Hiroshi Sasaki (Kumamoto University) and Hiroki Kurihara (The University of Tokyo).
Immediately after the transfection, DMSO or IBS008738 was added at a concentration of 10 μM, respectively. After growing the cells to confluence, the cells were transferred to a differentiation medium with DMSO or IBS008738, and cultured for 24 hours before the luciferase assay.

C2C12 cells [1] = test: Muscle formation in C2C12 cells with or without TAZ knockdown (anti-MHC immunostaining, immunoblotting); format: cell-based, mouse; details: C2C12 cells with TAZ not knocked down (si Cont); 10 μM; 72 hours
Method: (2) C2C12 cells with TAZ knocked down by a method described in Sci Signal 2:ra59 (si TAZ) and C2C12 cells with TAZ not knocked down (si Cont) were cultured for 72 hours in a culture medium added with IBS008738 or DMSO at a concentration of 10 μM, respectively, and were immunostained with an anti-MHC antibody (the white portion in FIG. 3B, the bar is 100 μm). Further, immunoblotting was performed with an anti-MHC antibody and an anti-TAZ antibody (see FIG. 3C). […] Further, the expression of MHC was lost by the knockdown of TAZ.
Human TAZ and mouse TAZ were knocked down in MCF10A cells and C2C12 cells as described previously (Ikeda M et al., Sci Signal 2:ra59). The double strand (ds) RNAs used are human TAZ (Ambion s24789) and mouse TAZ (Dharmacon siRNA D-041057).

C2C12 cells [2] = test: Proliferation of C2C12 cells by MTT method; format: cell-based, mouse; details: for Relative cell proliferation: growth condition, day 1 as 1
Method: In order to examine whether IBS008738 as an effect on the proliferation of cells, C2C12 cells were cultured under growth condition for 5 days in a medium added with IBS008738 at 0 μM (not added), 0.1 μM, 1 μM and 10 μM, respectively, and the number of the cells was counted each day by MTT (3-(4, 5-dimethylthiazol-2-yl)-2, 5-diphenyl tetrazolium bromide) method. The counting was performed three times, and the obtained numbers were relativized with the number of day 1 as 1.

A549 cells = test: Immunoblotting of EMT markers in A549 cells; format: cell-based, human
Method: (1) A431 cells, (epidermoid carcinoma), A549 cells (adenocarcinomic human alveolar basal epithelial cell) and HCT116 cells (human colon cancer) were treated with IBS008738 or DMSO, respectively, and evaluated by immunoblotting.
HEK293, A431, A549, HCT116, MCF7 and SW480 cells were cultured in Dulbecco's Modified Eagle Medium (DMEM) containing 10% fetal bovine serum (FBS), 10 mM HEPES-NaOH at pH 7.4, 100 U/ml penicillin and 100 mg/I streptomycin under 5% CO2 at 37° C.

[3] = tested on: binding of Pax3 to Myf5 promoter; test: Chromatin immunoprecipitation, Pax3 on Myf5 promoter; format: cell-based, mouse; details: C2C12 cells; 10 μM; differentiation condition 24 hours; protein G sepharose without antibody; listed as IBS008738
Method: (1) Chromatin immunoprecipitation of MyoD, TEAD and Pax3 was performed on C2C12 cells that were cultured under differentiation condition for 24 hours in a culture medium added with IBS008738 or DMSO at a concentration of 10 μM. Myogenin, connective tissue growth factor (CTGF) and MyfS were detected by PCR, respectively. The immunoprecipitation with protein G sepharose was used as a control (Mock ChIP). […] The line and the error bar in the figure indicate the average value and the standard error, *p<0.05, ***p<0.001, ns refers to not significant.
The Chromatin immunoprecipitation was performed according to the following process. C2C12 cells were cultured to confluence, and then treated with IBS008738 or DMSO at a concentration of 10 μM in a differentiation medium for 24 hours. The cells were crosslinked in 1.42% (v/v) formaldehyde for 15 minutes, and the reaction was quenched by treating with 125 mM glycine for 5 minutes. […] Shearing was analyzed by agarose gel electrophoresis. […] The immunoprecipitated DNA fragments were isolated using Chelex-100 resin and diluted by 1:2.5 for quantitative PCR analysis. Input normalized relative abundance was determined.

**Q.** With Cc1ccc(-n2cnc(/N=C/N3CCOCC3)c2C(=O)c2ccccc2)cc1 [exemplary compound 1] as the compound, how does the fold induction at 10 µM (SMAD reporter) read?
**A.** Its fold induction at 10 µM is 2.09.

**Q.** What about the muscle formation (C2C12 cells [1]) of the same compound?
**A.** The muscle formation was “promoted muscle formation”.

**Q.** What about the “effect on the proliferation of C2C12 cells” value (C2C12 cells [2]; 0.1 μM, 1 μM and 10 μM, 5 days) of the same compound?
**A.** Its value is “does not have an effect”.

**Q.** What about the Relative cell proliferation (C2C12 cells [2]; 0.1 μM, 24 h) of the same compound?
**A.** Its Relative cell proliferation is 1.00.

**Q.** What about the Relative cell proliferation (C2C12 cells [2]; 0.1 μM, 48 h, listed as IBS008738) of the same compound?
**A.** Its Relative cell proliferation is 2.09 and 2.06 and 2.18.

**Q.** And the Relative cell proliferation (C2C12 cells [2]; 0.1 μM, 72 h, listed as IBS008738)?
**A.** The Relative cell proliferation was 5.37 and 4.74 and 4.59.

**Q.** And the Relative cell proliferation (C2C12 cells [2]; 0.1 μM, 120 h, listed as IBS008738)?
**A.** The Relative cell proliferation was 9.01 and 8.76 and 8.78.

**Q.** What about the Relative cell proliferation (C2C12 cells [2]; 1 μM, 24 h) of the same compound?
**A.** The Relative cell proliferation was 1.00.

**Q.** And the Relative cell proliferation (C2C12 cells [2]; 1 μM, 48 h, listed as IBS008738)?
**A.** The Relative cell proliferation was 2.41 and 2.05 and 2.07.

**Q.** And the Relative cell proliferation (C2C12 cells [2]; 1 μM, 72 h, listed as IBS008738)?
**A.** Its Relative cell proliferation is 5.11 and 4.54 and 4.46.

**Q.** And the Relative cell proliferation (C2C12 cells [2]; 1 μM, 120 h, listed as IBS008738)?
**A.** The Relative cell proliferation was 9.13 and 8.80 and 8.79.

**Q.** And the Relative cell proliferation (C2C12 cells [2]; 10 μM, 24 h)?
**A.** The Relative cell proliferation was 1.00.

**Q.** What about the Relative cell proliferation (C2C12 cells [2]; 10 μM, 48 h, listed as IBS008738) of the same compound?
**A.** Its Relative cell proliferation is 2.09 and 2.07.

**Q.** What about the Relative cell proliferation (C2C12 cells [2]; 10 μM, 72 h, listed as IBS008738) of the same compound?
**A.** Its Relative cell proliferation is 4.70 and 4.90 and 4.92.

**Q.** And the Relative cell proliferation (C2C12 cells [2]; 10 μM, 120 h, listed as IBS008738)?
**A.** The Relative cell proliferation was 8.63 and 8.99 and 8.56.

**Q.** And the “EMT markers (fibronectin, E-cadherin, N-cadherin and vimentin) compared with DMSO” value (A549 cells)?
**A.** Its value is “no significant difference”.

**Q.** What about the “Input %, Myf5-p, Mock ChIP” value [3] of the same compound?
**A.** The value was 0.14% and 0.13% and 0.16%.
